# Source: PubChem BioAssay (NCI)
#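 Step 1: Grow cells in 96-well plates. Step 2: Expose to compound for 48 hours at 5 concentrations. Step 3: Interpolate endpoints linearly; if unreached, use highest concentration. TGI: total growth inhibition.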
# Tests used:
# Assay in all cases: NCI anticancer screen, dose series, 48 h
# SK-MEL-2 melanoma = tested on: SK-MEL-2 melanoma
# HCC-2998 colon = tested on: HCC-2998 colon
# OVCAR-3 ovarian = tested on: OVCAR-3 ovarian
# UO-31 renal = tested on: UO-31 renal
# PC-3 prostate = tested on: PC-3 prostate
# DU-145 prostate = tested on: DU-145 prostate
# SF-268 CNS = tested on: SF-268 CNS
# UACC-257 melanoma = tested on: UACC-257 melanoma
# MDA-N = tested on: MDA-N
# KM12 colon = tested on: KM12 colon
SMILES,TGI (SK-MEL-2 melanoma) [µM],TGI (HCC-2998 colon) [µM],TGI (OVCAR-3 ovarian) [µM],TGI (UO-31 renal) [µM],TGI (PC-3 prostate) [µM],TGI (DU-145 prostate) [µM],TGI (SF-268 CNS) [µM],TGI (UACC-257 melanoma) [µM],TGI (MDA-N) [µM],TGI (KM12 colon) [µM]
COC(=O)[C@H](Cc1c[nH]c2ccccc12)NP(=O)(OCCC#N)OCC1OC(n2cc(C)c(=O)[nH]c2=O)CC1N=[N+]=[N-] (stereo not given in full),> 100,> 100,> 100,> 100,> 100,> 100,> 100,> 100,> 100,> 100
COc1ccc(C2C3=C(N=C4SC(C(C)=O)=C(C)N42)c2ccccc2CC3)cc1 (stereo not given),> 100,> 100,> 100,> 100,> 100,> 100,> 100,> 100,> 100,> 100
CCn1c(=O)c2nc(SC)sc2n(-c2ccc(C)cc2)c1=O,> 100,> 100,> 100,> 100,> 100,> 100,> 100,> 100,> 100,> 100
NNC(=O)Nc1nc2ccc(NN)cc2[nH]1,> 100,41.4,> 100,> 100,> 100,> 100,> 100,88.1,> 100,48.7
Cc1c(C(=O)c2ccc(N)c3ccccc23)c2ccccc2n1CCN1CCOCC1,47.2,59.9,41.3,86.6,> 100,> 95.2,> 88.5,58.5,55,49.1
CC(C)(C)OC(=O)N/C(C=O)=C\C1CCCCC1,54.9,37.3,73.1,30.2,47.4,95.9,52.3,48,50.3,77.6
COc1cccc(N=N/C(=N/NC(=O)c2ccc(C)cc2)c2ccc(N(CCC#N)CCC#N)cc2OC)c1,> 100,> 100,> 100,> 100,> 100,> 100,> 100,> 100,> 100,> 100
CSC(=S)Nc1cc(C)cc(C)n1,> 31.6,> 31.6,> 31.6,> 31.6,> 31.6,> 31.6,> 31.6,> 31.6,> 31.6,> 31.6
Nc1ccc(-c2nc3ccccc3s2)cc1Cl,> 100,> 100,> 100,> 100,> 100,> 100,> 100,> 100,> 100,> 100
C[C@]12CC[C@H]3[C@@H](CCC4=CC(=O)C=C[C@@]43OC(=O)C(F)(F)F)[C@@H]1CCC2=O,> 100,> 100,> 100,> 100,> 100,> 100,> 100,> 100,> 100,> 100
Cc1ccc(S(=O)(=O)N2C[C@@H]3CC[C@]4(CO[Si](C)(C)C(C)(C)C)N[C@@H](c5ccccc5)[C@H]2[C@H]34)cc1,> 100,50.5,> 100,> 100,> 100,> 100,> 100,93.8,> 100,> 100
CC(C)(C)OC(=O)NC12C3C4C1C1C2C3C41NC(=O)OC(C)(C)C (stereo not given),> 100,> 100,> 100,> 100,> 100,> 100,> 100,> 100,> 100,39.3
Cc1nc2cc(F)c(F)cc2[nH]c1=O,> 100,> 100,> 100,> 100,> 100,> 100,> 100,> 100,> 100,> 100
CCN1C/C(=C\c2ccc(Cl)cc2)c2nc(N)c(C#N)c(-c3ccc(Cl)cc3)c2C1,> 100,> 100,> 100,> 100,> 100,> 100,> 100,> 100,> 100,> 100
